Counter-ions that a name gives are not always drawn.
Molecular target: T1, AR (Homo sapiens, UniProt P10275)
T1 construct: endogenous in cells; host or cells: VCaP cells
T1 sequence (P10275 1-920): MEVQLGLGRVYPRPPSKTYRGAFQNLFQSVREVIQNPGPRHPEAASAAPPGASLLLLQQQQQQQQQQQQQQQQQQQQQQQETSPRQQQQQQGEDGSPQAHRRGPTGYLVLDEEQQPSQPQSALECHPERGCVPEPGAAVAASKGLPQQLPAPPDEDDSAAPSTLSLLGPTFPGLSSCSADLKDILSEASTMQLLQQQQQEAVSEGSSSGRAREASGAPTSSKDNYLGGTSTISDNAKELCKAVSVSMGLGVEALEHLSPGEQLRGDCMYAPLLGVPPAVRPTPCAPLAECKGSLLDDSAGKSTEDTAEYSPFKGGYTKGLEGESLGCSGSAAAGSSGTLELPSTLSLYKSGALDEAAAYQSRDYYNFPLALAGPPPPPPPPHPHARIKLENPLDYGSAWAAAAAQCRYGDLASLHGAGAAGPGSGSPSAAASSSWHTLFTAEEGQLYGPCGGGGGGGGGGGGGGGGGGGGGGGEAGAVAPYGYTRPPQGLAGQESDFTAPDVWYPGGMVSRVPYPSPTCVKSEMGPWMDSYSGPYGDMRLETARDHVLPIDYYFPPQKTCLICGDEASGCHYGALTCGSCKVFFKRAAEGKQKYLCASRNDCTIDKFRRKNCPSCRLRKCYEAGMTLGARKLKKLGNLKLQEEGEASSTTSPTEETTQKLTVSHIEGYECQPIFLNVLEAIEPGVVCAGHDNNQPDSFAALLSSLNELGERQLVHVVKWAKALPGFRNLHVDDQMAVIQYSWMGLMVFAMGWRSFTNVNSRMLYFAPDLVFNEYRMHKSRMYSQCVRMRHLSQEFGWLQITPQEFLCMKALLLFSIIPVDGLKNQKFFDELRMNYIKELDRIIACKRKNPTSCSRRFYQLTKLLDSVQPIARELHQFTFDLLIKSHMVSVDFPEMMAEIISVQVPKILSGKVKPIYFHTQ
Assay: VCAP AR Degradation Assay
Assay type: cell-based
Conditions: for Y (AR degradation efficiency, % of DMSO control): class symbols *; for DC50: class symbols A-C, read-out: DC50
How it was run: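 Compounds were plated as 10-point 1:3 series reaching 5 μM final, then VCaP cells were seeded onto them and incubated 24 h at 37 °C. Cells were lysed cold, and total AR was measured by sandwich ELISA relative to 0.1% DMSO wells.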

With `CC(F)(F)c1cc(N2C(=S)N(c3cnc(C#N)c(C(F)(F)F)c3)C(=O)C2(C)C)ccc1OCCN1CCN(CC(=O)Nc2cccc(NC3CCC(=O)NC3=O)c2)CC1` (stereo not drawn) [Example 60, 2-(4-(2-(4-(3-(6-cyano-5-(trifluoromethyl)pyridin-3-yl)-5,5-dimethyl-4-oxo-2-thioxoimidazolidin-1-yl)-2-(1,1-difluoroethyl)phenoxy)ethyl)piperazin-1-yl)-N-(3-(2,6-dioxopiperidin-3-ylamino)phenyl)acetamide] as the compound, how does the “Y (AR degradation efficiency, % of DMSO control)” value read?
The value was “* (0<Y<=25%)”.

What about the DC50 of the same compound?
Its DC50 is less than 100 nM.

Which “Y (AR degradation efficiency, % of DMSO control)” value does the source give for `CCc1cc(N2C(=S)N(c3ccc(C#N)c(C(F)(F)F)c3)C(=O)C23CCC3)ccc1OCCN1CCN(CC(=O)Nc2cccc(NC3CCC(=O)NC3=O)c2)CC1` (stereo not drawn) [Example 132, 2-(4-(2-(4-(7-(4-cyano-3-(trifluoromethyl)phenyl)-8-oxo-6-thioxo-5,7-diazaspiro[3.4]octan-5-yl)-2-ethylphenoxy)ethyl)piperazin-1-yl)-N-(3-(2,6-dioxopiperidin-3-ylamino)phenyl)acetamide] here?
Its value is “* (0<Y<=25%)”.

What about the DC50 of the same compound?
Its DC50 is less than 100 nM.

What does the source list for `CCc1cc(N2C(=S)N(c3ccc(C#N)c(C(F)(F)F)c3)C(=O)C2(C)C)ccc1OCCN1CCN(CC(=O)Nc2cc(Cl)cc(NC3CCC(=O)NC3=O)c2)CC1` (stereo not drawn) [Example 40, hydrochloride]?
Y (AR degradation efficiency, % of DMSO control): * (0<Y<=25%); DC50: < 100 nM

Which results are given for `C[C@@H]1CN(CCOc2ccc(N3C(=S)N(c4cnc(C#N)c(C(F)(F)F)c4)C(=O)C3(C)C)cc2C(C)(F)F)C[C@H](C)N1CC(=O)Nc1cc(C#N)cc(NC2CCC(=O)NC2=O)c1` (stereo partly drawn) [Example 258, N-(3-cyano-5-(2,6-dioxopiperidin-3-ylamino)phenyl)-2-((2S,6R)-4-(2-(4-(3-(6-cyano-5-(trifluoromethyl)pyridin-3-yl)-5,5-dimethyl-4-oxo-2-thioxoimidazolidin-1-yl)-2-(1,1-difluoroethyl)phenoxy)ethyl)-2.6-dimethylpiperazin-1-yl)acetamide]?
Y (AR degradation efficiency, % of DMSO control): * (0<Y<=25%); DC50: < 100 nM

Which “Y (AR degradation efficiency, % of DMSO control)” value does the source give for `C[C@@H]1CN(CCOc2ccc(N3C(=S)N(c4ccc(C#N)c(Cl)c4)C(=O)C3(C)C)cc2C2CC2)C[C@H](C)N1CC(=O)Nc1cc(F)cc(NC2CCC(=O)NC2=O)c1` (stereo partly drawn) [Example 226, 2-((2S,6R)-4-(2-(4-(3-(3-chloro-4-cyanophenyl)-5,5-dimethyl-4-oxo-2-thioxoimidazolidin-1-yl)-2-cyclopropylphenoxy)ethyl)-2,6-dimethylpiperazin-1-yl)-N-(3-(2,6-dioxopiperidin-3-ylamino)-5-fluorophenyl)acetamide] here?
Its value is “* (0<Y<=25%)”.

And the DC50?
Its DC50 is less than 100 nM.

For `CCc1cc(N2C(=S)N(c3cnc(C#N)c(Cl)c3)C(=O)C2(C)C)ccc1OCCN1CCN(CC(=O)Nc2cccc(NC3CCC(=O)NC3=O)c2)[C@H](C)C1` (stereo partly drawn) [Example 167, 2-((R)-4-(2-(4-(3-(5-chloro-6-cyanopyridin-3-yl)-5,5-dimethyl-4-oxo-2-thioxoimidazolidin-1-yl)-2-ethylphenoxy)ethyl)-2-methylpiperazin-1-yl)-N-(3-(2,6-dioxopiperidin-3-ylamino)phenyl)acetamide], which “Y (AR degradation efficiency, % of DMSO control)” value is on record?
Its value is “* (0<Y<=25%)”.

What about the DC50 of the same compound?
Its DC50 is less than 100 nM.

What does the source list for `C[C@@H]1CN(CCOc2ncc(N3C(=S)N(c4ccc(C#N)c(C(F)(F)F)c4)C(=O)C3(C)C)cc2C2CC2)C[C@H](C)N1CC(=O)Nc1cccc(NC2CCC(=O)NC2=O)c1` (stereo partly drawn) [Example 228, 2-((2S,6R)-4-(2-(5-(3-(4-cyano-3-(trifluoromethyl)phenyl)-5,5-dimethyl-4-oxo-2-thioxoimidazolidin-1-yl)-3-cyclopropylpyridin-2-yloxy)ethyl)-2,6-dimethylpiperazin-1-yl)-N-(3-(2,6-dioxopiperidin-3-ylamino)phenyl)acetamide]?
Y (AR degradation efficiency, % of DMSO control): * (0<Y<=25%); DC50: < 100 nM

For `CCc1cc(N2C(=S)N(c3cnc(C#N)c(C(F)(F)F)c3)C(=O)C2(C)C)ccc1O[C@@H](C)CN1C[C@@H](C)N(CC(=O)Nc2cccc(NC3CCC(=O)NC3=O)c2)[C@@H](C)C1` (single isomer, unassigned) [Example 240], which “Y (AR degradation efficiency, % of DMSO control)” value is on record?
Its value is “** (25%<Y<=35%)”.

And the DC50?
Its DC50 is 100 to 500 nM.

With `CC(C)c1cc(N2C(=S)N(c3ccc(C#N)c(Cl)c3)C(=O)C2(C)C)ccc1OCCN1C[C@@H](C)N(CC(=O)Nc2cccc(NC3CCC(=O)NC3=O)c2)[C@@H](C)C1` (stereo partly drawn) [Example 202, 2-((2S,6R)-4-(2-(4-(3-(3-chloro-4-cyanophenyl)-5,5-dimethyl-4-oxo-2-thioxoimidazolidin-1-yl)-2-isopropylphenoxy)ethyl)-2,6-dimethylpiperazin-1-yl)-N-(3-(2,6-dioxopiperidin-3-ylamino)phenyl)acetamide] as the compound, how does the “Y (AR degradation efficiency, % of DMSO control)” value read?
The value was “* (0<Y<=25%)”.

And the DC50?
The DC50 was less than 100 nM.

`CC(C)c1cc(N2C(=S)N(c3ccc(C#N)c(C(F)(F)F)c3)C(=O)C2(C)C)ccc1OCCN1C[C@@H](C)N(CC(=O)Nc2cc(Cl)cc(NC3CCC(=O)NC3=O)c2)C[C@H]1C` (stereo partly drawn) [Example 175, N-(3-chloro-5-(2,6-dioxopiperidin-3-ylamino)phenyl)-2-((2R,5R)-4-(2-(4-(3-(4-cyano-3-(trifluoromethyl)phenyl)-5,5-dimethyl-4-oxo-2-thioxoimidazolidin-1-yl)-2-isopropylphenoxy)ethyl)-2,5-dimethylpiperazin-1-yl)acetamide] was tested. Which “Y (AR degradation efficiency, % of DMSO control)” value did it give?
Its value is “* (0<Y<=25%)”.

What about the DC50 of the same compound?
Its DC50 is 100 to 500 nM.

Which “Y (AR degradation efficiency, % of DMSO control)” value does the source give for `CCc1cc(N2C(=S)N(c3ccc(C#N)c(C(F)(F)F)c3)C(=O)C2(C)C)cnc1OCCN1C[C@@H](C)N(CC(=O)Nc2cccc(NC3CCC(=O)NC3=O)c2)[C@@H](C)C1` (stereo partly drawn) [Example 216, 2-((2R,6S)-4-(2-(5-(3-(4-cyano-3-(trifluoromethyl)phenyl)-5,5-dimethyl-4-oxo-2-thioxoimidazolidin-1-yl)-3-ethylpyridin-2-yloxy)ethyl)-2,6-dimethylpiperazin-1-yl)-N-(3-(2,6-dioxopiperidin-3-ylamino)phenyl)acetamide] here?
Its value is “** (25%<Y<=35%)”.

What about the DC50 of the same compound?
The DC50 was less than 100 nM.

With `C[C@@H]1CN(CCOc2ccc(N3C(=S)N(c4ccc(C#N)c(C(F)(F)F)c4)C(=O)C3(C)C)cc2CCF)CCN1CC(=O)Nc1cc(Cl)cc(NC2CCC(=O)NC2=O)c1` (stereo partly drawn) [Example 135, N-(3-chloro-5-(2,6-dioxopiperidin-3-ylamino)phenyl)-2-((R)-4-(2-(4-(3-(4-cyano-3-(trifluoromethyl)phenyl)-5,5-dimethyl-4-oxo-2-thioxoimidazolidin-1-yl)-2-(2-fluoroethyl)phenoxy)ethyl)-2-methylpiperazin-1-yl)acetamide] as the compound, how does the “Y (AR degradation efficiency, % of DMSO control)” value read?
Its value is “* (0<Y<=25%)”.

And the DC50?
The DC50 was less than 100 nM.

With `N#Cc1ccc(N2C(=O)C3(CCOC3)N(c3ccc(OCCN4CCN(CC(=O)Nc5cc(Cl)cc(NC6CCC(=O)NC6=O)c5)CC4)c(F)c3)C2=S)cc1C(F)(F)F` (single isomer, unassigned) [Example 55, N-(3-chloro-5-(2,6-dioxopiperidin-3-ylamino)phenyl)-2-(4-(2-(4-(3-(4-cyano-3 (trifluoromethyl)phenyl)-4-oxo-2-thioxo-7-oxa-1,3-diazaspiro[4.4]nonan-1-yl)-2-fluorophenoxy)ethyl)piperazin-1-yl)acetamide] as the compound, how does the “Y (AR degradation efficiency, % of DMSO control)” value read?
Its value is “** (25%<Y<=35%)”.

And the DC50?
The DC50 was 100 to 500 nM.

With `C[C@@H]1CN(CC(=O)Nc2cc(C#N)cc(NC3CCC(=O)NC3=O)c2)[C@H](C)CN1CCOc1ccc(N2C(=S)N(c3cnc(C#N)c(C(F)(F)F)c3)C(=O)C2(C)C)cc1C(C)(F)F` (stereo partly drawn) [Example 243, N-(3-cyano-5-(2,6-dioxopiperidin-3-ylamino)phenyl)-2-((2R,5R)-4-(2-(4-(3-(6-cyano-5-(trifluoromethyl)pyridin-3-yl)-5,5-dimethyl-4-oxo-2-thioxoimidazolidin-1-yl)-2-(1,1-difluoroethyl)phenoxy)ethyl)-2,5-dimethylpiperazin-1-yl)acetamide] as the compound, how does the “Y (AR degradation efficiency, % of DMSO control)” value read?
Its value is “* (0<Y<=25%)”.

And the DC50?
The DC50 was less than 100 nM.

For `CC1(C)C(=O)N(c2cnc(C#N)c(C(F)(F)F)c2)C(=S)N1c1ccc(OCCN2CCN(CC(=O)Nc3cc(NC4CCC(=O)NC4=O)ccc3F)CC2)cc1` (stereo not drawn) [Example 86, 2-(4-(2-(4-(3-(6-cyano-5-(trifluoromethyl)pyridin-3-yl)-5,5-dimethyl-4-oxo-2-thioxoimidazolidin-1-yl)phenoxy)ethyl)piperazin-1-yl)-N-(5-(2,6-dioxopiperidin-3-ylamino)-2-fluorophenyl)acetamide], which “Y (AR degradation efficiency, % of DMSO control)” value is on record?
Its value is “** (25%<Y<=35%)”.

What about the DC50 of the same compound?
The DC50 was less than 100 nM.

Reference: patent US12404241B2 (Celgene Corporation, priority 2018, dated 2025)
